What all share (experiment): biochemical
Holding throughout (parameters): Eurofins KinaseProfiler full panel at Km ATP, residual kinase activity (%) relative to DMSO

In assay [1] the target is EphA7(h) (Homo sapiens, UniProt Q15375). In a few lines: (§1)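 Two 10 µM single-concentration screens were run: a competition-binding screen, in which DNA-tagged kinase bound to immobilized ligands was quantified by qPCR, and a radiometric activity panel at Km ATP. Each is expressed as residual kinase activity (%).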
The target in assay [2] is T1, PI3 Kinase (p110a(E542K)/p85a)(h) (Homo sapiens, UniProt P42336, E542K).
T1 construct: gene PIK3CA
In a few lines:
as §1

Assay [3] addresses T2, PI3KC2a(h) (Homo sapiens, UniProt O00443).
T2 construct: gene PIK3C2A
In a few lines:
as §1

Assay [4] has as its target T3, GRK3(h) (Homo sapiens, UniProt P35626).
T3 sequence (P35626 1-688): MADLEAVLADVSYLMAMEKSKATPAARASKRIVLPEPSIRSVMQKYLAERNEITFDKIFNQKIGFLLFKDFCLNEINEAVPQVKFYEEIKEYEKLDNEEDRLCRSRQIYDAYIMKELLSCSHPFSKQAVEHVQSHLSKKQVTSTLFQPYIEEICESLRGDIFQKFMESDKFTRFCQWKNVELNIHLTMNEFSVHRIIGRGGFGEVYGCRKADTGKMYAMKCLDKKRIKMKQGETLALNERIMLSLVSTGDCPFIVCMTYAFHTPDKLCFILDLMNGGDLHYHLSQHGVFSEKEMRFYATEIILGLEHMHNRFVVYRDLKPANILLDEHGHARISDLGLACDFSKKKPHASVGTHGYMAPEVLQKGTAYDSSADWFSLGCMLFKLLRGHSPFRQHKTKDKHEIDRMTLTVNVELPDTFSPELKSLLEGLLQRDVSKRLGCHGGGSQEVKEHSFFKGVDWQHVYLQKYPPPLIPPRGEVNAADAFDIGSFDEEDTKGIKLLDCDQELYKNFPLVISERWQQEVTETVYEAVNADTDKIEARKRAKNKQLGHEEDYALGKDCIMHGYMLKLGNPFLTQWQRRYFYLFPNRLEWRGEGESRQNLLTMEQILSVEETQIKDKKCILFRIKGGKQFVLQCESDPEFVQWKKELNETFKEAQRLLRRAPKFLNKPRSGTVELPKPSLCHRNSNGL
In a few lines: as §1

The target in assay [5] is Ret (V804L)(h) (Homo sapiens, UniProt P07949, V804L). The method, boiled down:
as §1

Assay [6] deals with T4, MST2(h) (Homo sapiens, UniProt Q13188).
T4 construct: gene STK3
T4 sequence (Q13188 1-491): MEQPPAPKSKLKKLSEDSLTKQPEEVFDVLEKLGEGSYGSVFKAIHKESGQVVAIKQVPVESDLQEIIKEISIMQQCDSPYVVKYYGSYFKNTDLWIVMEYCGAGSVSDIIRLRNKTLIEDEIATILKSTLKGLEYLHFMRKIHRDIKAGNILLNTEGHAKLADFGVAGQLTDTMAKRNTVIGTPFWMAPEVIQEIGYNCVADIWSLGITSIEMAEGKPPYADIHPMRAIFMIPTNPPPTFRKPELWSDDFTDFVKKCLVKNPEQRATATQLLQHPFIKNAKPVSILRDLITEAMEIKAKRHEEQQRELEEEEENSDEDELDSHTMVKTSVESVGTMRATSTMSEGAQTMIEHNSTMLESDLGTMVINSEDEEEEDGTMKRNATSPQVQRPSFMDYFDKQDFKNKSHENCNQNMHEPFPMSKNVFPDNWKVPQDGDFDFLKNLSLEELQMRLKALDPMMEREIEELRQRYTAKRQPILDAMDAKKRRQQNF
In a few lines: as §1

In assay [7] the target is SIK2(h) (Homo sapiens, UniProt Q9H0K1). The method, boiled down: as §1
Assay [8] has as its target T5, DYRK2(h) (Homo sapiens, UniProt Q92630).
T5 sequence (Q92630 1-601): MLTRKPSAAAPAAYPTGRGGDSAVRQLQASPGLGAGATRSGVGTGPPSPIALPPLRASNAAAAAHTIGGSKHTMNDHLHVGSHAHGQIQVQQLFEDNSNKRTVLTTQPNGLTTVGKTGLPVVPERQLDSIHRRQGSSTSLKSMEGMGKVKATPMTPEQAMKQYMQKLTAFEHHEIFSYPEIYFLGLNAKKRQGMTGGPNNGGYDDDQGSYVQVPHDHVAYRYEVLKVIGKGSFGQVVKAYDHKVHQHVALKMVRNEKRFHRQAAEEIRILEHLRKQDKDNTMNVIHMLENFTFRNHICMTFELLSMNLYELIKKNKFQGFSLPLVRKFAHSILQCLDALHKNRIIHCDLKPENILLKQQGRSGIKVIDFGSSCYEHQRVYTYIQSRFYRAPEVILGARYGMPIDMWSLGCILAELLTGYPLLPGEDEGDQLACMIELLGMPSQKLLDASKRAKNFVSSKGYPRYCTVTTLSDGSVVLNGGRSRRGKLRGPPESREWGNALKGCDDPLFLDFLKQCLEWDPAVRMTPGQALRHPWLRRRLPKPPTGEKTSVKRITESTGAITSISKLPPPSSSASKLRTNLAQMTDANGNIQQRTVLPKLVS
In a few lines: as §1

[9] abbreviates: read-out: Residual activity (%) Spautin-1 5aa.
Where [10] appears, read: read-out: Residual activity (%) 5as.
[11] abbreviates: read-out: Residual activity (%) 5at.
The mark [12] stands for this setting: read-out: Residual activity (%) 5ay.

Like-named read-outs stand apart in the source and are kept apart here.

T1 sequence (P42336 whole entry E542K): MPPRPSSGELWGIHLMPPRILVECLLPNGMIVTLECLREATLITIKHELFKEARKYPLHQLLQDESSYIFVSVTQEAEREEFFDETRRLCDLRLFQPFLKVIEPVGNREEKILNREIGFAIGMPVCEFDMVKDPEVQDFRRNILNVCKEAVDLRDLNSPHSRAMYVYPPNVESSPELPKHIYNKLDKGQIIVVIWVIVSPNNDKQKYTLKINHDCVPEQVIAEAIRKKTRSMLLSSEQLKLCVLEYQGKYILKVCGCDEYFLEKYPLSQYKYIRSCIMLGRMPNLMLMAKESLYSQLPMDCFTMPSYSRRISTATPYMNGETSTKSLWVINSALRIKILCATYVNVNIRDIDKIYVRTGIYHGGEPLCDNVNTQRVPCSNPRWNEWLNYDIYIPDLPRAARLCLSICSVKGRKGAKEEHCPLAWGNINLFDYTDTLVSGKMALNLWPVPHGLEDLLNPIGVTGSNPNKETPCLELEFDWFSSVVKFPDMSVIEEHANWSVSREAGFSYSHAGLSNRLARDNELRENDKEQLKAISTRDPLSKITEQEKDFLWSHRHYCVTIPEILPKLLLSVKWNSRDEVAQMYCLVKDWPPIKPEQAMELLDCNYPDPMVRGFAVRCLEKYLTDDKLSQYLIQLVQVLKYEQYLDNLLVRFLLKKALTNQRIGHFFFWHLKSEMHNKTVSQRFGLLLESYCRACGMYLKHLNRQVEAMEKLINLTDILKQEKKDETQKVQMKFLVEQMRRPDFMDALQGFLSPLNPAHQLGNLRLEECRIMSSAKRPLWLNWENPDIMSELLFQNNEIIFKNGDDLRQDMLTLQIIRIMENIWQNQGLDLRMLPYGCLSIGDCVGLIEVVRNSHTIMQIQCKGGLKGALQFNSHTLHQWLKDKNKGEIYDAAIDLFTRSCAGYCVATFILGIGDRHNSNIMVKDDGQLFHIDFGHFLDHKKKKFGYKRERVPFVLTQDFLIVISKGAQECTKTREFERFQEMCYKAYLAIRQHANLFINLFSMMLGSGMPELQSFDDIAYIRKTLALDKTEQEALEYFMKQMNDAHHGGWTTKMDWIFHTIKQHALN
T1 sequence (P27986 whole entry partner): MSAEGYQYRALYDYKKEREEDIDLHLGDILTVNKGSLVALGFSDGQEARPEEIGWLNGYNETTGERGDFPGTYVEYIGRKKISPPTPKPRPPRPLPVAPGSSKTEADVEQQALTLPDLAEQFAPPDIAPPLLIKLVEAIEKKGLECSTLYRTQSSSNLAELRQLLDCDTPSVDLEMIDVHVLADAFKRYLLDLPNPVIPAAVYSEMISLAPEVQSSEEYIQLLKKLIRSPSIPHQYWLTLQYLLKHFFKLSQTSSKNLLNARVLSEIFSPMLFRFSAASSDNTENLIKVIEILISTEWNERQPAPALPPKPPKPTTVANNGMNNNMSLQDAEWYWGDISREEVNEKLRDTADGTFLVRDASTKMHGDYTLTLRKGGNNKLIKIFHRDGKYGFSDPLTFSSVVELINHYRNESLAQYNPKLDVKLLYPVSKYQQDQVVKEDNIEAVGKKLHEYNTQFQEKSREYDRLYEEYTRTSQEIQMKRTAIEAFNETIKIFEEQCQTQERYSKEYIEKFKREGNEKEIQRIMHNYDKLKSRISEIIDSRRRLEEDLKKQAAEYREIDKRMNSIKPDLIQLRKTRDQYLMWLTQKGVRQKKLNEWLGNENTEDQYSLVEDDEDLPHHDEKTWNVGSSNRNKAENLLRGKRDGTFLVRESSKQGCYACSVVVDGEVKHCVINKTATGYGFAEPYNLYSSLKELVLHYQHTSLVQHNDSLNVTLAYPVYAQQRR
Chain of SIK2(h) (Q9H0K1 whole entry): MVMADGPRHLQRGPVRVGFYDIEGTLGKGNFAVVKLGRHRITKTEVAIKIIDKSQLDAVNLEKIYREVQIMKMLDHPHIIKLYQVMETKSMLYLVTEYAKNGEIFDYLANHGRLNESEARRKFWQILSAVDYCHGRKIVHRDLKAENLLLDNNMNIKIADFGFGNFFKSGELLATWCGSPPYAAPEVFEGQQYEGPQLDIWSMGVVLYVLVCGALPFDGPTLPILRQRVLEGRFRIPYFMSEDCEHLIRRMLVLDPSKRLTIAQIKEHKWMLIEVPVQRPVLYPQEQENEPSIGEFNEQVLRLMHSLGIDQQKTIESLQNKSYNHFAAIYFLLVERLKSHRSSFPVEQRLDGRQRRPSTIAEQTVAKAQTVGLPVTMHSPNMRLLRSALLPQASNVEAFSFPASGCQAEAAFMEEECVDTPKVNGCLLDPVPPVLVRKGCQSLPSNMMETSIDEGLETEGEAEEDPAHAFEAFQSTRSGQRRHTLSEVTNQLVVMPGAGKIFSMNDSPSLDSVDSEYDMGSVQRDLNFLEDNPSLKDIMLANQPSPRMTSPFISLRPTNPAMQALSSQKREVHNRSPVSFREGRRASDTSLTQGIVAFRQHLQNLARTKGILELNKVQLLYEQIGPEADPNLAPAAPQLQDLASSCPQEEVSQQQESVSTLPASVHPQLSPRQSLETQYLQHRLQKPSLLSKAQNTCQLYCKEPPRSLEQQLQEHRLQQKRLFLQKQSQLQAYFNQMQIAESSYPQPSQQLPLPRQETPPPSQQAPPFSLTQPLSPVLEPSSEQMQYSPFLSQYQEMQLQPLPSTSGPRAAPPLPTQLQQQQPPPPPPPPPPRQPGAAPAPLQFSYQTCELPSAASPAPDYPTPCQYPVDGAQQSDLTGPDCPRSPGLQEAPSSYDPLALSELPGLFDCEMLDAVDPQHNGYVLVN
Chain of EphA7(h) (Q15375 whole entry): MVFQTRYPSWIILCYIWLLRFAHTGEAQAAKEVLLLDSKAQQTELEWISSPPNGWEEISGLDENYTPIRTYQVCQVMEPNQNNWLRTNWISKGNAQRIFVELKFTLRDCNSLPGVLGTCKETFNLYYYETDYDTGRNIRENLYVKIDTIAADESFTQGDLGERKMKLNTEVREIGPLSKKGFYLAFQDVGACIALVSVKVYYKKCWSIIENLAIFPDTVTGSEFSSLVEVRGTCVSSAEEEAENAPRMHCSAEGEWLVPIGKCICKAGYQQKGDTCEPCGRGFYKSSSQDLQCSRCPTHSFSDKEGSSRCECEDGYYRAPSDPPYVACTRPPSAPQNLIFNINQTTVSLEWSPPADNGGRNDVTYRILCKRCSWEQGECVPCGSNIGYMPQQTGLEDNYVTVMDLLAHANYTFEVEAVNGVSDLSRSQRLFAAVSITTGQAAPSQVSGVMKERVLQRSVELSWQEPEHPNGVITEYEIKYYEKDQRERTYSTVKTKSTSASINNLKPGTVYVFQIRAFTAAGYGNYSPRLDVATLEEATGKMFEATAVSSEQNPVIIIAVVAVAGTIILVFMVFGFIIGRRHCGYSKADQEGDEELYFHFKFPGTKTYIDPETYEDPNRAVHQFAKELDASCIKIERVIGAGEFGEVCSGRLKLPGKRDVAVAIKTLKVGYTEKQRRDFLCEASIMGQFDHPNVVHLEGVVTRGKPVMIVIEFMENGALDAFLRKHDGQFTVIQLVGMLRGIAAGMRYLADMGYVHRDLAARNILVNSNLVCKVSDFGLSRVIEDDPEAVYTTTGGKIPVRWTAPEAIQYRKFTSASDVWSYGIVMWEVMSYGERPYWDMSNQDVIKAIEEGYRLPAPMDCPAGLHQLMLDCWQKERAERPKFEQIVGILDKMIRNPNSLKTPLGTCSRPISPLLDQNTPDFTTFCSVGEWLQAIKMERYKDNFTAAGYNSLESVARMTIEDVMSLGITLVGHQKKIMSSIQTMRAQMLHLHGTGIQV
Chain of Ret (V804L)(h) (P07949 whole entry V804L): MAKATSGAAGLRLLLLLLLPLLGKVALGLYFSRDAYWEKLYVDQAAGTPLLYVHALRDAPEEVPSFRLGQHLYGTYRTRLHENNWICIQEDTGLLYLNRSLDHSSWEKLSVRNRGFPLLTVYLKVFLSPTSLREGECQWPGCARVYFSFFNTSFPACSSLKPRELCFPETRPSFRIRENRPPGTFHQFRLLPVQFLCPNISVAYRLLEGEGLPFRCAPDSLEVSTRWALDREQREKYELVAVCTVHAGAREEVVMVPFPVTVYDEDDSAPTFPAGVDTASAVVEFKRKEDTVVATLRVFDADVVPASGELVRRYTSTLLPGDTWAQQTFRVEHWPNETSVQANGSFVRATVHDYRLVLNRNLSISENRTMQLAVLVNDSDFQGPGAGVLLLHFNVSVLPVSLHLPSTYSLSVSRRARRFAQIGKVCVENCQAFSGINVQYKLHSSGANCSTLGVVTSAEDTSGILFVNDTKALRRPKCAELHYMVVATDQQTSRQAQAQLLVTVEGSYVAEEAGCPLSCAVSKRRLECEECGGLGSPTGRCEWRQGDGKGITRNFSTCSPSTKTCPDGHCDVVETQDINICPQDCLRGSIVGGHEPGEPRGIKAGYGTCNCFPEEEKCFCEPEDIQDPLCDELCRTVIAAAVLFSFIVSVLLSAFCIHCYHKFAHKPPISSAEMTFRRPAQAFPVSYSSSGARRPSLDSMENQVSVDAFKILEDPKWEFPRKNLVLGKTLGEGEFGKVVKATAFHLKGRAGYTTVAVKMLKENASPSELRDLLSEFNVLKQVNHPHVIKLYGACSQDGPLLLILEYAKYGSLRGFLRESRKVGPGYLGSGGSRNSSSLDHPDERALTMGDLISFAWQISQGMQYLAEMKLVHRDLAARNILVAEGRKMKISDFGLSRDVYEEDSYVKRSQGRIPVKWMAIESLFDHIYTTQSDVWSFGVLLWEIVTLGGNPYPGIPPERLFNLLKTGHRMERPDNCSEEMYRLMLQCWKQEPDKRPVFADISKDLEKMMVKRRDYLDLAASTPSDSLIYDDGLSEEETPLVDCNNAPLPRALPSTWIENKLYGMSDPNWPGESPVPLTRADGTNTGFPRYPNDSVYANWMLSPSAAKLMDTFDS

As to `Fc1ccc(CNc2ncnc3ccc(F)cc23)cc1` [5aa, 6-Fluoro-N-(4-fluorobenzyl)-4-Quinazolinamine], the remaining activity at 10 µM came to 100% in assay [1] (setting [9]); 94% in assay [2] (setting [9]); 102% in assay [3] (setting [9]); 95% in assay [4] (setting [9]); 82% in assay [5] (setting [9]); 98% in assay [6] (setting [9]). In addition, the figures for the remaining activity at 10 µM in assay [7] (setting [9]) and in assay [8] (setting [9]) were 91% and 99%, respectively.

With `Fc1ccc(CCNc2ncnc3ccc(F)cc23)cc1` [5as, 6-Fluoro-N-[2-(4-Fluorophenyl)Ethyl]-4-Quinazolinamine], the remaining activity at 10 µM in assay [1] (setting [10]) is 84%; in assay [2] (setting [10]), 91%; in assay [3] (setting [10]) it was 100%; in assay [4] (setting [10]), 92%; in assay [5] (setting [10]), 78%; in assay [6] (setting [10]), 112%. Besides, the remaining activity at 10 µM in assay [7] (setting [10]) amounted to 97%; in assay [8] (setting [10]), 100%.

Turning to `Fc1ccc2ncnc(NCCc3ccc(Cl)cc3)c2c1` [5at, N-[2-(4-Chlorophenyl)Ethyl]-6-Fluoro-4-Quinazolinamine], the remaining activity at 10 µM in assay [1] (setting [11]) was found to be 87%; in assay [2] (setting [11]) it was 93%; in assay [3] (setting [11]), 105%; in assay [4] (setting [11]), 97%; in assay [5] (setting [11]), 71%; in assay [6] (setting [11]) it was 81%. The remaining activity at 10 µM in assay [7] (setting [11]) was 84%; in assay [8] (setting [11]), 103%.

On to `COc1ccc2ncnc(Nc3cccc(F)c3)c2c1` [5ay, N-(3-Fluorophenyl)-6-Methoxy-4-Quinazolinamine], for which the remaining activity at 10 µM in assay [1] (setting [12]) was 90%; in assay [2] (setting [12]), 88%; in assay [3] (setting [12]), 106%; in assay [4] (setting [12]) it was 93%; in assay [5] (setting [12]), 91%; in assay [6] (setting [12]), 102%. For the same molecule, the results for the remaining activity at 10 µM in assay [7] (setting [12]) and in assay [8] (setting [12]) were 65% and 64%, respectively.
